Among the data in patent publication US12570682B2, “Method for increasing bulk density of nicotinamide mononucleotide crystal and crystal thereof” (BONTAC BIO-ENGINEERING (SHENZHEN) CO., LTD, priority 2021, dated 2026) are Bulk density and tap density values, retold here.

Like-named read-outs stand apart in the source and are kept apart here.

Data set [1] is described as follows: loose bulk density measurement of nicotinamide mononucleotide crystals (sieve, weigh, graduated cylinder). Type of data set: physicochemical. As for the experimental part:
Bulk densities mentioned below are all loose bulk densities, and specific values are measured by the following method: taking an object to be tested, sieving the object (1.00 mm No. 18), accurately weighing the object, slowly pouring the object into a glass graduated cylinder, scraping the top, recording an apparent volume, and calculating the bulk density; and taking 3 same samples for parallel measurement, recording the readings, and using an average value as a measurement result.

The conditions of data set [2]: prior-art crystals (CN108697722A; CN11269505A embodiment data); cited from earlier work.
For data set [3] the following is noted: CN11269505A embodiment data; cited from earlier work.
Where [4] appears, read: loose bulk density, average of 3 parallel samples.

As for `NC(=O)c1ccc[n+]([C@@H]2O[C@H](COP(=O)([O-])O)[C@@H](O)[C@H]2O)c1` [Comparative Example 4, nicotinamide mononucleotide], the Bulk density in data set [1] (setting [4]) stood at 0.56 g/mL.

For the compound `NC(=O)c1ccc[n+]([C@@H]2O[C@H](COP(=O)([O-])O)[C@@H](O)[C@H]2O)c1` [form 2, β-nicotinamide mononucleotide], the Bulk density result in data set [2] is listed as “about 0.2 g/ml”.

In the case of `NC(=O)c1ccc[n+]([C@@H]2O[C@H](COP(=O)([O-])O)[C@@H](O)[C@H]2O)c1` [Comparative Example 3, nicotinamide mononucleotide], in data set [1] (setting [4]), the Bulk density stood at 0.40 g/mL.

`NC(=O)c1ccc[n+]([C@@H]2O[C@H](COP(=O)([O-])O)[C@@H](O)[C@H]2O)c1` [Comparative Example 1, nicotinamide mononucleotide] registered a Bulk density in data set [1] (setting [4]) of 0.23 g/mL.

In data set [1] (setting [4]), `NC(=O)c1ccc[n+]([C@@H]2O[C@H](COP(=O)([O-])O)[C@@H](O)[C@H]2O)c1` [Example 8, nicotinamide mononucleotide] returned a Bulk density of 1.24 g/mL.

Turning to `NC(=O)c1ccc[n+]([C@@H]2O[C@H](COP(=O)([O-])O)[C@@H](O)[C@H]2O)c1` [Example 5, nicotinamide mononucleotide], in data set [1] (setting [4]), the Bulk density came out at 1.17 g/mL.

Take `NC(=O)c1ccc[n+]([C@@H]2O[C@H](COP(=O)([O-])O)[C@@H](O)[C@H]2O)c1` [Example 1, nicotinamide mononucleotide]: the Bulk density worked out at 1.05 g/mL in data set [1] (water content of semi-solid 1%, pH 3.5, ethanol, cooling 10° C./h to 10° C.); 1.03 g/mL in data set [1] (water content of semi-solid 5%, pH 3.5, ethanol, cooling 10° C./h to 10° C.); 0.89 g/mL in data set [1] (water content of semi-solid 10%, pH 3.5, ethanol, cooling 10° C./h to 10° C.); 0.77 g/mL in data set [1] (water content of semi-solid 15%, pH 3.5, ethanol, cooling 10° C./h to 10° C.); 0.67 g/mL in data set [1] (water content of semi-solid 20%, pH 3.5, ethanol, cooling 10° C./h to 10° C.); 0.56 g/mL in data set [1] (water content of semi-solid 25%, pH 3.5, ethanol, cooling 10° C./h to 10° C.). In addition, the Bulk density in data set [1] (water content of semi-solid 35%, pH 3.5, ethanol, cooling 10° C./h to 10° C.) worked out at 0.44 g/mL; in data set [1] (water content of semi-solid 50%, pH 3.5, ethanol, cooling 10° C./h to 10° C.), 0.33 g/mL; in data set [1] (water content of semi-solid 75%, pH 3.5, ethanol, cooling 10° C./h to 10° C.) it was 0.26 g/mL.

In turn, `NC(=O)c1ccc[n+]([C@@H]2O[C@H](COP(=O)([O-])O)[C@@H](O)[C@H]2O)c1` [Example 4, nicotinamide mononucleotide] showed a Bulk density in data set [1] (setting [4]) of 1.02 g/mL.

For the compound `NC(=O)c1ccc[n+]([C@@H]2O[C@H](COP(=O)([O-])O)[C@@H](O)[C@H]2O)c1` [Example 3, nicotinamide mononucleotide], the Bulk density was 0.89 g/mL in data set [1] (pH value of aqueous solution of NMN 3.5, water content 10%, cooling 10° C./h to 10° C.); 1.08 g/mL in data set [1] (pH value of aqueous solution of NMN 4.5, water content 10%, cooling 10° C./h to 10° C.); 1.09 g/mL in data set [1] (pH value of aqueous solution of NMN 5.0, water content 10%, cooling 10° C./h to 10° C.); 1.09 g/mL in data set [1] (pH value of aqueous solution of NMN 5.5, water content 10%, cooling 10° C./h to 10° C.); 1.07 g/mL in data set [1] (pH value of aqueous solution of NMN 6.0, water content 10%, cooling 10° C./h to 10° C.); 1.08 g/mL in data set [1] (pH value of aqueous solution of NMN 6.5, water content 10%, cooling 10° C./h to 10° C.). Also, in data set [1] (pH value of aqueous solution of NMN 7.0, water content 10%, cooling 10° C./h to 10° C.), the Bulk density came to 0.81 g/mL.

Consider `NC(=O)c1ccc[n+]([C@@H]2O[C@H](COP(=O)([O-])O)[C@@H](O)[C@H]2O)c1` [Example 2, nicotinamide mononucleotide], for which the Bulk density was found to be 0.93 g/mL in data set [1] (cooling rate 1, crystallization end temperature 10, water content 10%, pH 3.5); 0.88 g/mL in data set [1] (cooling rate 1, crystallization end temperature 18, water content 10%, pH 3.5); 0.93 g/mL in data set [1] (cooling rate 3, crystallization end temperature 10, water content 10%, pH 3.5); 0.92 g/mL in data set [1] (cooling rate 5, crystallization end temperature 5, water content 10%, pH 3.5); 0.92 g/mL in data set [1] (cooling rate 5, crystallization end temperature 10, water content 10%, pH 3.5); 0.88 g/mL in data set [1] (cooling rate 5, crystallization end temperature 18, water content 10%, pH 3.5). Besides, the Bulk density in data set [1] (cooling rate 10, crystallization end temperature 5, water content 10%, pH 3.5) amounted to 0.88 g/mL; in data set [1] (cooling rate 10, crystallization end temperature 10, water content 10%, pH 3.5), 0.89 g/mL; in data set [1] (cooling rate 10, crystallization end temperature 18, water content 10%, pH 3.5), 0.84 g/mL; in data set [1] (cooling rate 15, crystallization end temperature 8, water content 10%, pH 3.5), 0.84 g/mL; in data set [1] (cooling rate 15, crystallization end temperature 10, water content 10%, pH 3.5), 0.84 g/mL; in data set [1] (cooling rate 15, crystallization end temperature 18, water content 10%, pH 3.5), 0.82 g/mL. Further, the Bulk density in data set [1] (cooling rate 15, crystallization end temperature 25, water content 10%, pH 3.5) worked out at 0.34 g/mL; in data set [1] (cooling rate 20, crystallization end temperature 10, water content 10%, pH 3.5), 0.35 g/mL.

For `NC(=O)c1ccc[n+]([C@@H]2O[C@H](COP(=O)([O-])O)[C@@H](O)[C@H]2O)c1` [Example 6, nicotinamide mononucleotide], the Bulk density in data set [1] (setting [4]) came out at 1.21 g/mL.

As to `NC(=O)c1ccc[n+]([C@@H]2O[C@H](COP(=O)([O-])O)[C@@H](O)[C@H]2O)c1` [high-density NMN, nicotinamide mononucleotide], the tap density in data set [3] was 0.71 g/mL. Also, in data set [2], the Bulk density was 0.52 g/mL.

In the case of `NC(=O)c1ccc[n+]([C@@H]2O[C@H](COP(=O)([O-])O)[C@@H](O)[C@H]2O)c1` [form 1, β-nicotinamide mononucleotide, reference compound], the Bulk density in data set [1] (loose bulk density, average of 3 parallel samples, listed as nicotinamide mononucleotide anhydrous crystal) is 0.20 g/mL; in data set [2], “about 0.2 g/ml”.

`NC(=O)c1ccc[n+]([C@@H]2O[C@H](COP(=O)([O-])O)[C@@H](O)[C@H]2O)c1` [Example 7, nicotinamide mononucleotide] returned a Bulk density in data set [1] (setting [4]) of 0.95 g/mL.

On to `NC(=O)c1ccc[n+]([C@@H]2O[C@H](COP(=O)([O-])O)[C@@H](O)[C@H]2O)c1` [Comparative Example 2, nicotinamide mononucleotide], for which, in data set [1] (setting [4]), the Bulk density was 0.20 g/mL.
